Results taken from patent publication US20240269067A1 (GEL4MED, INC., priority 2020, published 2024).

Assay: Net charge and isoelectric point of peptide
Format: physicochemical
Details: pH 7
Description: The peptide may be purified. For example, the peptide may be lyophilized. […] Other peptides are within the scope of the disclosure.
Exemplary peptides having a charge of +5 to +9 include […](d)[…], […](d)[…], and […](d)[…]. In other embodiments, the purified peptide may be substantially neutral. […] Net charge may be selected by peptide design. Design of electrostatic charge in the peptide hydrogel may allow control of charge interaction with cell membrane and proteins.

Substance: VEVSVSVEV(d)PPTEVSVEVEV
- net charge: net negative charge
